In assay [1] the test system is RMR rats (5/6 nephrectomy), renal fibrosis. The assay is described as follows: Light microscopy of kidneys after 5/6 nephrectomy (RMR) in rats, semi-quantitative histological evaluation. The format is in vivo, Male Wistar rats. As for the experimental part:
A solution of halofuginone was prepared by dissolution of powder of halofuginone hydrobromide in aqueous media containing suitable buffer. Male Wistar rats (weighing 300±30 g at the start of the experiment) were used in this study after being allowed to acclimatize to their environment for one week. Rats were assigned to undergo renal mass reduction (RMR) by 5/6 nephrectomy or sham operation, under anesthesia with intraperitoneal injection of pentobarbital (35 mg/kg body weight). RMR was performed by ligature of 2 of 3 major branches of the left renal artery and right nephrectomy in the same session. Sham rats undergo exposure of the kidneys and removal of the peri-renal fat, without undergoing RMR. After 24 hours recovery of the rats were assigned to one of the following groups: 1) Group I: RMR rats, oral gavage with halofuginone 0.2 mg/kg/day started 24 hours post surgery. 2) Group II: RMR rats, oral gavage with normal saline daily, started 24 hours post surgery. 3) Group III: age matched, sham operated rats served as the controls. All animals were allowed free access to a standard diet and water ad libitum. At sacrifice (10 weeks after RMR), kidneys were removed and processed for in situ hybridization, immunohistochemistry and histological evaluation. Light microscopy studies: specimens were fixed in 10% buffered formaldehyde and embedded in paraffin. Histological sections of 4-5μ thickness were stained with hematoxylin-eosin (HES), periodic acid Schiff (PAS) and Masson trichrome (light green). A semi-quantitative score was used to evaluate the degree of glomerulosclerosis, mesangial expansion and proliferation and tubulo-interstitial changes. A minimum of 30 glomeruli in each specimen was examined and the severity of the lesions was graded from 0 to 4+, according to the percentage of glomerular involvement. […] An injury score was obtained by multiplying the degree of damage (0-4+) by the percentage of glomeruli with the same degree of lesions. The evaluation of tubulointerstitial fibrosis was performed with the point-counting method using a Zeiss I integrating eyepiece.

The subject of assay [2] is RMR rats (5/6 nephrectomy). The assay is described as follows: Protein concentration in urine (proteinuria) of RMR rats. The note with it: halofuginone 0.2 mg/kg/day oral, statistically significant from week 5 post-nephrectomy on (FIG. 2). The format is in vivo, Male Wistar rats. As for the experimental part: Male Wistar rats (weighing 300±30 g at the start of the experiment) were used in this study. They were allowed to acclimatize to their environment for one week. Rats were assigned to undergo renal mass reduction (RMR) by 5/6 nephrectomy or Sham operation, under anesthesia with intraperitoneal injection of pentobarbital (35 mg/kg body weight). RMR was performed by ligature of 2 of 3 major branches of the left renal artery and right nephrectomy in the same session. Sham rats have undergone exposition of the kidneys and removal of the peri-renal fat. After 24 hours recovery the rats were assigned to one of the following groups: 1) Group I: RMR rats, oral gavage with halofuginone 0.2 mg/kg/day started 24 hours post surgery. 2) Group II: RMR rats, oral gavage with normal saline daily, started 24 hours post surgery. 3) Group III: age matched, sham operated rats served as the controls. […] Every week, systolic blood pressure was measured by tail cuff manometry and urine samples were collected individually in metabolic cages for determination of total protein and creatinine excretion. Protein concentration in urine was determined by a colorimetric method using pyrogallol-red molybdate complex (cobas integra 700, Roche). Body weight was also measured. […] Serum creatinine was measured with a Hitachi model 747 autoanalyzer, using the kinetic Jaffe method.

Several values for one entry are separate records, joined by “and”; a condition that tells them apart may be missing. Equal entries are not always repeated. Entries after “also recorded” stand apart in the source; their conditions may differ.

As for `O=C(CC1NCCC[C@H]1O)Cn1cnc2cc(Br)c(Cl)cc2c1=O` (stereo in doubt) [Halofuginone, 7-bromo-6-chloro-3-[3-(3-hydroxy-2-piperidinyl)-2-oxopropyl]-4(3H)-quinazolinone], in assay [1] (halofuginone 0.2 mg/kg/day oral, RMR rats, 10 weeks), the “tubulointerstitial fibrosis compared to the control group” value is listed as “significant decrease”. Besides, in assay [1] (halofuginone 0.2 mg/kg/day oral, RMR rats, 10 weeks, versus control), the “presence of glomerulosclerosis and mesangial proliferation” value is “less accentuated”. For the same compound, the Tubules entry in assay [1] (individual rats of Group I, halofuginone 0.2 mg/kg/day oral gavage, 10 weeks after RMR, light microscopy) is “Normal; also recorded: Few atrophic”. Further, the “Glomerulus Proliferation” value in assay [1] (individual rats of Group I, halofuginone 0.2 mg/kg/day oral gavage, 10 weeks after RMR, light microscopy (preliminary results)) was “Mild (4×) and Moderate (2×)”. In addition, in assay [1] (individual rats of Group I, halofuginone 0.2 mg/kg/day oral gavage, 10 weeks after RMR, light microscopy, graded 0 to 4+), the “Glomerulus Sclerosis” value is recorded as 0. Further, the “levels of proteinuria versus control nephrectomized group” value in assay [2] is “lower levels of proteinuria”.

For the origin of these results see patent publication US20040171627A1, “Treatment of renal fibrosis” (Hadasit, priority 2001, published 2004).
